biological target: T1, rat EP1 receptor (Rattus norvegicus, UniProt P70597); assay: Test for confirmation of EP1 receptor antagonism (inhibition of PGE2-induced increase in intracellular calcium concentration); assay type: cell-based; conditions: rat EP1 receptor-expressing COS-1 cells; prostaglandin E2 10 nM; fluorescent calcium indicator, FDSS 7000
T1 construct: expressed in transfected cells
T1 sequence (P70597 1-405): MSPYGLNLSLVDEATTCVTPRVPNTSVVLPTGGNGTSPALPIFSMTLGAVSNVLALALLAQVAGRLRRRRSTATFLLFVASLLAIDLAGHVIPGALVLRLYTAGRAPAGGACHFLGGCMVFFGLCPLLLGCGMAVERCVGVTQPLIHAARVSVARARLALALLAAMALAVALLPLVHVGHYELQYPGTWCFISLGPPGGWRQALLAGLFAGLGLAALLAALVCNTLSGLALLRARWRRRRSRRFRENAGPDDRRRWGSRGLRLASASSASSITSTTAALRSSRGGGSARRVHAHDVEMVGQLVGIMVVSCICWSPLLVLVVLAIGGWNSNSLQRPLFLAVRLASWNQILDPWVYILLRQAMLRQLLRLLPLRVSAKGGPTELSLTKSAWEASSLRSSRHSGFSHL
Procedure: Test for Confirmation of EP1 Receptor Antagonism
(1) Preparation of Rat EP1 Expression Vector
Using Rat Kidney BD Marathon-Ready cDNA (Nippon Becton Dickinson Company, Ltd.) as a template, a forward primer shown in (SEQ ID NO:1), and a reverse primer shown in (SEQ ID NO:2), a first run of PCR was carried out using KOD-Plus-Ver 2.0 (Toyobo Co., Ltd.). Further, using this amplification product as a template, a forward primer shown in (SEQ ID NO:3), and a reverse primer shown in (SEQ ID NO:4), a second run of PCR was carried out in the same manner. The amplification product obtained by the second run of PCR was incorporated into a vector (pcDNA3.1 D/V5-His-TOPO (registered trademark), Invitrogen Japan K. K.). By a conventional method, the vector containing this amplification product was introduced to E. coli (One Shot TOP 10 Competent Cells, Invitrogen Corporation) to transform. This transformed E. coli was cultured in an LB agar medium for one day. After the culture, colonies were selected and cultured in an LB liquid medium containing 50 μg/mL of ampicillin. After the culture, the vector was purified using a QIAprep Spin Miniprep Kit (Qiagen K. K.). The base sequence of the insertion site of this vector (SEQ ID NO:5) was compared with the rat EP1 base sequence (Ptger1) registered as Accession No. NM_013100 in publicly-known database (NCBI), and as a result, they all matched except for a single base. Further, the amino acid sequence translated by the base sequence completely matched the amino acid sequence of the rat EP1 receptor registered as an NCBI Accession No. NP_037232. Therefore, it was confirmed that the cloned gene sequence was a base sequence of the rat EP1 receptor and the obtained amino acid sequence was that of the rat EP1 receptor. The pcDNA3.1 D/V5-His-TOPO (registered trademark) to which the nucleic acid shown in (SEQ ID NO:5) had been inserted was taken as a rat EP1-expressing vector.
(2) Preparation of Rat EP1 Receptor-Expressing Cells
COS-1 cells (Dainippon Sumitomo Pharma Co., Ltd.) were cultured until they reached confluence in an incubator at 37° C. under a 5% CO2 gas condition, using a D-MEM liquid medium (high glucose and L-glutamine contained, Invitrogen Corporation) to which a penicillin-streptomycin solution (Invitrogen Corporation, final concentration: 100 U/mL as benzylpenicillin; 100 μg/mL as streptomycin) as an antibiotic, MEM nonessential amino acids (Invitrogen Corporation, final concentration: 0.1 mM), and fetal calf serum (Sanko Junyaku Co., Ltd., final concentration: 10%) were added.
The cells that had reached confluence were stripped with 0.05% trypsin/0.53 mM EDTA.4Na, and resuspended in a D-MEM liquid medium (high glucose and L-glutamine contained, Invitrogen Corporation) to which an MEM nonessential amino acid (final concentration: 0.1 mM) and fetal calf serum (final concentration: 10%) were added. In each well of a Poly D-lysine-coated 96-well microplate (BD BioCoat (registered trademark), Nippon Becton Dickinson Company, Ltd.), this resuspended cell suspension culture was prepared to be 5×10^4 cells/well in 100 μL of the liquid medium, and 100 μL of the cell suspension was seeded on each well. After seeding, the cells were cultured in an incubator at 37° C. under a 5% CO2 gas condition. At a point when the cells for introduction of a rat EP1-expressing vector were adhered (about 2 hours after seeding), introduction of the rat EP1-expressing vector was carried out in the following order.
For introduction of the rat EP1-expressing vector, Lipofectamine 2000 (Invitrogen Japan K. K.) was used. The rat EP1-expressing vector was diluted with OPTI-MEM (registered trademark) I Reduced-Serum Medium (Invitrogen Japan K. K.) to 200 ng/25 μL/well, and at the same time, Lipofectamine 2000 (Invitrogen Japan K. K.) was also diluted with OPTI-MEM (registered trademark) I Reduced-Serum Medium (Invitrogen Japan K. K.) to 0.5 μL/25 μL/well, followed by incubation at room temperature for 5 minutes. […]

| Structure (SMILES) | IC50 [nM] |
| --- | --- |
| COc1ccc2c(Cc3cccc(C(=O)NS(C)(=O)=O)n3)c(-c3ccsc3)[nH]c2c1 [Example 1, N-Methanesulfonyl-6-(6-methoxy-2-thiophen-3-yl-1H-indol-3-ylmethyl)pyridine-2-carboxamide] | 99 |
| COc1ccc2c(Cc3cccc(C(=O)NS(=O)(=O)c4ccccc4)n3)c(-c3ccccc3)[nH]c2c1 [Example 3-3] | 30 |
| CCCS(=O)(=O)NC(=O)c1cccc(Cc2c(-c3ccccc3)[nH]c3cc(OC)ccc23)n1 [Example 3-4] | 39 |
| CCCS(=O)(=O)NC(=O)c1cccc(Cc2c(C(C)(C)C)[nH]c3cc(OC)c(Cl)cc23)n1 [Example 3-5] | 55 |
| CCS(=O)(=O)NC(=O)c1cccc(Cc2c(C(C)(C)C)[nH]c3cc(OC)c(Cl)cc23)n1 [Example 3-7] | 33 |
| COc1ccc2c(Cc3cccc(C(=O)NS(=O)(=O)C4CC4)n3)c(-c3ccccc3)[nH]c2c1 [Example 3-10] | 47 |
| COc1ccc2c(Cc3cccc(C(=O)NS(=O)(=O)c4ccccc4)n3)c(C(C)(C)C)[nH]c2c1 [Example 3-11] | 17 |
| Cc1ccc2c(Cc3cccc(C(=O)NS(C)(=O)=O)n3)c(-c3ccsc3)[nH]c2c1 [Example 3-12] | 27 |
| COc1ccc2c(Cc3cccc(C(=O)NS(C)(=O)=O)n3)c(-c3ccc(F)cc3)[nH]c2c1 [Example 3-14] | 88 |
| COc1ccc2c(Cc3cccc(C(=O)NS(C)(=O)=O)n3)c(-c3csc(C)c3)[nH]c2c1 [Example 3-20] | 68 |
| CCS(=O)(=O)NC(=O)c1cccc(Cc2c(-c3ccccc3)[nH]c3cc(Cl)ccc23)n1 [Example 3-24] | 58 |
| CS(=O)(=O)NC(=O)c1cccc(Cc2c(-c3ccccc3)[nH]c3cc(Cl)ccc23)n1 [Example 3-25] | 78 |
| Cc1cc2[nH]c(-c3ccccc3)c(Cc3cccc(C(=O)NS(C)(=O)=O)n3)c2cc1C [Example 3-30] | 43 |
| CCS(=O)(=O)NC(=O)c1cccc(Cc2c(-c3ccccc3)[nH]c3cc(C)c(C)cc23)n1 [Example 3-31] | 47 |
| CCS(=O)(=O)NC(=O)c1cccc(Cc2c(-c3ccccc3)[nH]c3cc(OC)c(F)cc23)n1 [Example 3-32] | 51 |
| CCS(=O)(=O)NC(=O)c1cccc(Cc2c(-c3ccccc3)[nH]c3cc(C4CC4)ccc23)n1 [Example 3-33] | 66 |
| CCS(=O)(=O)NC(=O)c1cccc(Cc2c(-c3ccccc3)[nH]c3cc(C)ccc23)n1 [Example 3-34] | 40 |
| COc1cc2[nH]c(-c3ccccc3)c(Cc3cccc(-c4noc(=O)[nH]4)n3)c2cc1F [Example 12-5] | 46 |
| O=c1[nH]c(-c2cccc(Cc3c(-c4ccccc4)[nH]c4cc(C5CC5)ccc34)n2)no1 [Example 12-6] | 40 |
| Cc1cc2[nH]c(-c3ccccc3)c(Cc3cccc(-c4noc(=O)[nH]4)n3)c2cc1C [Example 12-7] | 28 |
| Cc1ccc2c(Cc3cccc(-c4noc(=O)[nH]4)n3)c(-c3ccsc3)[nH]c2c1 [Example 12-9] | 34 |
| Cc1ccc2c(Cc3cccc(C(=O)NC#N)n3)c(-c3ccccc3)[nH]c2c1 [Example 16-1] | 54 |
| COc1cc2[nH]c(-c3ccccc3)c(Cc3cccc(C(=O)NC#N)n3)c2cc1F [Example 16-3] | 24 |
| COc1cc2[nH]c(C(C)(C)C)c(Cc3cccc(C(=O)NC#N)n3)c2cc1Cl [Example 16-5] | 46 |
| Cc1ccc2c(Cc3cccc(C(=O)NC#N)n3)c(-c3ccsc3)[nH]c2c1 [Example 16-6] | 36 |

Next, values leading:

| IC50 [nM] | Structure (SMILES) |
| --- | --- |
| 27 | COc1ccc2c(Cc3cccc(C(=O)NS(=O)(=O)C(C)C)n3)c(-c3ccccc3)[nH]c2c1 [Example 3-13] |
| 27 | CCS(=O)(=O)NC(=O)c1cccc(Cc2c(-c3ccc(F)cc3)[nH]c3cc(OC)ccc23)n1 [Example 3-15] |
| 86 | CCS(=O)(=O)NC(=O)c1cccc(Cc2c(-c3csc(C)c3)[nH]c3cc(OC)ccc23)n1 [Example 3-21] |
| 58 | CCS(=O)(=O)NC(=O)c1cccc(Cc2c(-c3ccoc3)[nH]c3cc(OC)ccc23)n1 [Example 3-23] |
| 12 | COc1ccc2c(Cc3cccc(-c4nnn[nH]4)n3)c(-c3ccsc3)[nH]c2c1 [Example 5-4] |
| 45 | COc1ccc2c(Cc3cccc(-c4nnn[nH]4)c3)c(-c3ccccc3)[nH]c2c1 [Example 5-6] |
| 12 | COc1cc2[nH]c(-c3ccccc3)c(Cc3cccc(-c4nnn[nH]4)n3)c2cc1F [Example 5-8] |
| 22 | COc1ccc2c(Cc3cccc(-c4nnn[nH]4)n3)c(-c3ccc(F)cc3)[nH]c2c1 [Example 5-9] |
| 13 | COc1ccc2c(Cc3cccc(-c4nnn[nH]4)n3)c(-c3cccnc3)[nH]c2c1 [Example 5-10] |
| 26 | COc1ccc2c(Cc3cccc(-c4nnn[nH]4)n3)c(-c3csc(C)c3)[nH]c2c1 [Example 5-12] |
| 30 | Cc1ccc2c(Cc3cccc(-c4nnn[nH]4)n3)c(-c3ccsc3)[nH]c2c1 [Example 5-13] |
| 50 | COc1ccc2c(Cc3cccc(-c4noc(=S)[nH]4)n3)c(-c3ccccc3)[nH]c2c1 [Example 9, 3-[6-(6-Methoxy-2-phenyl-1H-indol-3-ylmethyl)pyridin-2-yl]-4,5-dihydro-1,2,4-oxadiazole-5-thione] |
| 23 | COc1ccc2c(Cc3cccc(-c4noc(=O)[nH]4)n3)c(-c3ccoc3)[nH]c2c1 [Example 12-1] |
| 43 | COc1ccc2c(Cc3cccc(-c4noc(=O)[nH]4)n3)c(C(C)(C)C)[nH]c2c1 [Example 12-2] |
| 48 | COc1ccc2c(Cc3cccc(C(=O)NC#N)n3)c(C(C)(C)C)[nH]c2c1 [Example 16-2] |
| 20 | Cc1cc2[nH]c(-c3ccccc3)c(Cc3cccc(-c4nnn[nH]4)n3)c2cc1C [Example 17-3] |
| 27 | COc1cc2[nH]c(C(C)C)c(Cc3cccc(-c4nnn[nH]4)n3)c2cc1Cl [Example 17-4] |
| 23 | COc1ccc2c(Cc3cccc(-c4nnn[nH]4)n3)c(C(C)C)[nH]c2c1 [Example 17-5] |
| 31 | COc1ccc2c(Cc3cccc(-c4nnn[nH]4)n3)c(C3CC3)[nH]c2c1 [Example 17-6] |
| 30 | COc1ccc2c(Cc3cccc(-c4nnn[nH]4)n3)c(C3CCCCC3)[nH]c2c1 [Example 17-7] |
| 7.3 | Cc1ccc2c(Cc3cccc(-c4nnn[nH]4)n3)c(-c3ccoc3)[nH]c2c1 [Example 17-8] |
| 10 | c1cc(Cc2c(-c3ccoc3)[nH]c3cc(C4CC4)ccc23)nc(-c2nnn[nH]2)c1 [Example 17-9] |
| 22 | CCC(C)c1[nH]c2cc(OC)ccc2c1Cc1cccc(-c2nnn[nH]2)n1 (stereo not shown) [Example 17-10] |
| 28 | CC1(c2[nH]c3cc(C4CC4)ccc3c2Cc2cccc(-c3nnn[nH]3)n2)CC1 [Example 17-13, 6-cyclopropyl-2-(1-methylcyclopropyl)-3-[6-(1H-tetrazol-5-yl)pyridin-2-ylmethyl]-1H-indole] |
